In the NIST ThermoML archive (doi:10.1021/acs.jced.5b00348):
Values joined by “and” are separate entries in the source; they are usually repeats but may differ in a detail not shown here. Equal entries are not always repeated. Numbers after ± are expanded uncertainties.

Conditions: for vapor or sublimation pressure: Closed cell (Static) method

## FC(F)(F)/C=C/Cl [(E)-1-chloro-3,3,3-trifluoroprop-1-ene]
379.78 K, 201.47 kPa, Gas
  speed of sound: 156.72 ± 0.025 m/s
379.78 K, 201.53 kPa, Gas
  speed of sound: 156.72 ± 0.025 m/s
379.78 K, 407.41 kPa, Gas
  speed of sound: 151.7 ± 0.026 m/s
379.78 K, 407.46 kPa, Gas
  speed of sound: 151.7 ± 0.026 m/s
379.78 K, 407.5 kPa, Gas
  speed of sound: 151.7 ± 0.026 m/s
379.78 K, 407.74 kPa, Gas
  speed of sound: 151.69 ± 0.033 m/s
379.78 K, 407.82 kPa, Gas
  speed of sound: 151.69 ± 0.027 m/s
379.78 K, 407.85 kPa, Gas
  speed of sound: 151.69 ± 0.026 m/s
379.78 K, 568.62 kPa, Gas
  speed of sound: 147.47 ± 0.026 m/s
379.78 K, 796.76 kPa, Gas
  speed of sound: 140.89 ± 0.029 m/s
379.78 K, 796.81 kPa, Gas
  speed of sound: 140.89 ± 0.029 m/s
379.79 K, 407.85 kPa, Gas
  speed of sound: 151.69 ± 0.027 m/s
379.79 K, 796.72 kPa, Gas
  speed of sound: 140.89 ± 0.03 m/s
379.79 K, 959.4 kPa, Gas
  speed of sound: 135.64 ± 0.027 m/s
379.79 K, 959.42 kPa, Gas
  speed of sound: 135.64 ± 0.029 m/s
379.79 K, 959.44 kPa, Gas
  speed of sound: 135.64 ± 0.03 m/s
380 K, 2975.2 kPa, Fluid (supercritical or subcritical phases)
  mass density: 1043.29 ± 0.22 kg/m3
380 K, 3879.4 kPa, Liquid
  mass density: 1051.51 ± 0.26 kg/m3
380.03 K, 547.9 kPa, Gas
  mass density: 25.032 ± 0.016 kg/m3
380.03 K, 548.2 kPa, Gas
  mass density: 25.047 ± 0.017 kg/m3
380.03 K, Liquid
  vapor or sublimation pressure: 1207.4 ± 1.9 kPa
380.04 K, 428.4 kPa, Gas
  mass density: 19.095 ± 0.016 kg/m3
383.99 K, 1844.2 kPa, Fluid (supercritical or subcritical phases)
  mass density: 1016.28 ± 0.24 kg/m3
383.99 K, 4425 kPa, Fluid (supercritical or subcritical phases)
  mass density: 1042.8 ± 0.24 kg/m3
385 K, 5748.6 kPa, Liquid
  mass density: 1050.89 ± 0.26 kg/m3
389.93 K, 1284.7 kPa, Gas
  mass density: 67.575 ± 0.029 kg/m3
390 K, 7622.7 kPa, Liquid
  mass density: 1050.32 ± 0.28 kg/m3
390.03 K, 572 kPa, Gas
  mass density: 25.32 ± 0.016 kg/m3
390.03 K, 572.2 kPa, Gas
  mass density: 25.33 ± 0.016 kg/m3
390.04 K, 448.1 kPa, Gas
  mass density: 19.387 ± 0.015 kg/m3
390.04 K, Liquid
  vapor or sublimation pressure: 1480.7 ± 2.3 kPa
391.99 K, 2100.9 kPa, Fluid (supercritical or subcritical phases)
  mass density: 985.96 ± 0.23 kg/m3
391.99 K, 4502.1 kPa, Fluid (supercritical or subcritical phases)
  mass density: 1015.42 ± 0.24 kg/m3
395 K, 2051.4 kPa, Liquid
  mass density: 971.55 ± 0.26 kg/m3
395 K, 4073.9 kPa, Liquid
  mass density: 999.34 ± 0.25 kg/m3
395 K, 6005.8 kPa, Liquid
  mass density: 1020.09 ± 0.25 kg/m3
395 K, 7979.4 kPa, Liquid
  mass density: 1037.8 ± 0.28 kg/m3
395 K, 9495 kPa, Liquid
  mass density: 1049.74 ± 0.28 kg/m3
399.68 K, 81.08 kPa, Gas
  speed of sound: 163.78 ± 0.024 m/s
399.69 K, 81.05 kPa, Gas
  speed of sound: 163.76 ± 0.024 m/s
399.69 K, 81.08 kPa, Gas
  speed of sound: 163.78 ± 0.024 m/s
399.7 K, 81.05 kPa, Gas
  speed of sound: 163.76 ± 0.024 m/s
399.7 K, 200.81 kPa, Gas
  speed of sound: 161.43 ± 0.025 m/s
399.7 K, 200.89 kPa, Gas
  speed of sound: 161.43 ± 0.025 m/s
399.71 K, 200.94 kPa, Gas
  speed of sound: 161.42 ± 0.025 m/s
399.71 K, 201.02 kPa, Gas
  speed of sound: 161.42 ± 0.024 m/s
399.72 K, 579.09 kPa, Gas
  speed of sound: 153.49 ± 0.025 m/s
399.72 K, 579.15 kPa, Gas
  speed of sound: 153.49 ± 0.025 m/s
399.72 K, 579.18 kPa, Gas
  speed of sound: 153.49 ± 0.025 m/s
399.73 K, 1002.2 kPa, Gas
  speed of sound: 143.33 ± 0.027 m/s
399.74 K, 1002.2 kPa, Gas
  speed of sound: 143.33 ± 0.027 m/s
399.74 K, 1416.7 kPa, Gas
  speed of sound: 131.29 ± 0.031 m/s and 131.29 ± 0.032 m/s
399.75 K, 1416.7 kPa, Gas
  speed of sound: 131.29 ± 0.03 m/s and 131.29 ± 0.031 m/s
399.93 K, 1343.9 kPa, Gas
  mass density: 67.621 ± 0.025 kg/m3
399.94 K, 1613 kPa, Gas
  mass density: 87.993 ± 0.031 kg/m3
399.98 K, 2020.5 kPa, Fluid (supercritical or subcritical phases)
  mass density: 946.51 ± 0.22 kg/m3
399.98 K, 2500.1 kPa, Fluid (supercritical or subcritical phases)
  mass density: 955.38 ± 0.23 kg/m3
399.98 K, 4501.4 kPa, Fluid (supercritical or subcritical phases)
  mass density: 985.13 ± 0.23 kg/m3
400.03 K, 468.2 kPa, Gas
  mass density: 19.679 ± 0.015 kg/m3
400.03 K, 596.5 kPa, Gas
  mass density: 25.617 ± 0.018 kg/m3 and 25.615 ± 0.016 kg/m3
400.04 K, Liquid
  vapor or sublimation pressure: 1798.9 ± 2.8 kPa
404.94 K, 3251 kPa, Fluid (supercritical or subcritical phases)
  mass density: 944.76 ± 0.22 kg/m3
409.92 K, 1401.3 kPa, Gas
  mass density: 67.63 ± 0.025 kg/m3
409.92 K, 1693.1 kPa, Gas
  mass density: 87.977 ± 0.03 kg/m3
409.95 K, 2426 kPa, Fluid (supercritical or subcritical phases)
  mass density: 899.12 ± 0.32 kg/m3
409.95 K, 4566.2 kPa, Fluid (supercritical or subcritical phases)
  mass density: 944.3 ± 0.22 kg/m3
410.01 K, 488.6 kPa, Gas
  mass density: 19.972 ± 0.016 kg/m3
410.01 K, 620.7 kPa, Gas
  mass density: 25.887 ± 0.016 kg/m3 and 25.885 ± 0.016 kg/m3
410.03 K, Liquid
  vapor or sublimation pressure: 2166.7 ± 3.4 kPa
414.94 K, 3540.5 kPa, Fluid (supercritical or subcritical phases)
  mass density: 898.69 ± 0.22 kg/m3
415.03 K, Liquid
  vapor or sublimation pressure: 2371 ± 3.7 kPa
419.55 K, 79.93 kPa, Gas
  speed of sound: 167.87 ± 0.024 m/s
419.56 K, 79.92 kPa, Gas
  speed of sound: 167.86 ± 0.024 m/s
419.56 K, 79.93 kPa, Gas
  speed of sound: 167.87 ± 0.024 m/s
419.56 K, 79.94 kPa, Gas
  speed of sound: 167.88 ± 0.024 m/s
419.56 K, 79.95 kPa, Gas
  speed of sound: 167.88 ± 0.024 m/s and 167.89 ± 0.024 m/s
